# Tests used:
# [1] = target: Dual specificity protein kinase CLK1 (Homo sapiens, UniProt P49759); assay: Selectivity interaction (KinomeScan (DiscoverX)) EUB0001049a CLK1; conditions: at 1 µM
# [2] = target: Tyrosine-protein kinase FRK (Homo sapiens) (UniProt P42685); assay: Selectivity interaction (KinomeScan (DiscoverX)) EUB0000666a FRK; conditions: at 10 µM
# [3] = target: Proto-oncogene tyrosine-protein kinase receptor Ret (Homo sapiens, UniProt P07949); assay: Selectivity interaction (KinaseProfiler screening (Millipore)) EUB0000601a RET; conditions: at 3 µM
# [4] = target: T1, Phosphatidylinositol 5-phosphate 4-kinase type-2 beta (Homo sapiens) (UniProt P78356); assay: Selectivity interaction (KinomeScan (DiscoverX)) EUB0000229b PIP4K2B; conditions: at 10 µM
# T1 sequence (whole entry): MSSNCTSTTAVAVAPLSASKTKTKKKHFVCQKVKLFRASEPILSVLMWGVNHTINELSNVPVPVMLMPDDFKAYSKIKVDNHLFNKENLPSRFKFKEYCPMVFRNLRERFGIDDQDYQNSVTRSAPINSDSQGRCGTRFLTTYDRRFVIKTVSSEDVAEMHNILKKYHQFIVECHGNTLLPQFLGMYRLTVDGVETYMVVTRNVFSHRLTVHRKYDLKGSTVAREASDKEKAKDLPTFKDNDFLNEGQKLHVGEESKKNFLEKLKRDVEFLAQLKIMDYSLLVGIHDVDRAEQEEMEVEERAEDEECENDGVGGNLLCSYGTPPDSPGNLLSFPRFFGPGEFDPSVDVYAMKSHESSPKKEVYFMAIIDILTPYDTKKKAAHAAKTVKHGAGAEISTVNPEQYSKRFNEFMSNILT
# [5] = target: Cannabinoid receptor 1 (Homo sapiens, UniProt P21554); assay: Selectivity interaction (Eurofins CEREP Diversity Profile (receptors and ion channels)) EUB0000279b CNR1; conditions: at 10 µM
# [6] = target: T2, Tyrosine-protein kinase JAK3 (Homo sapiens) (UniProt P52333); assay: Selectivity interaction (KinomeScan (DiscoverX)) EUB0001079a JAK3; conditions: at 1 µM
# T2 sequence (whole entry): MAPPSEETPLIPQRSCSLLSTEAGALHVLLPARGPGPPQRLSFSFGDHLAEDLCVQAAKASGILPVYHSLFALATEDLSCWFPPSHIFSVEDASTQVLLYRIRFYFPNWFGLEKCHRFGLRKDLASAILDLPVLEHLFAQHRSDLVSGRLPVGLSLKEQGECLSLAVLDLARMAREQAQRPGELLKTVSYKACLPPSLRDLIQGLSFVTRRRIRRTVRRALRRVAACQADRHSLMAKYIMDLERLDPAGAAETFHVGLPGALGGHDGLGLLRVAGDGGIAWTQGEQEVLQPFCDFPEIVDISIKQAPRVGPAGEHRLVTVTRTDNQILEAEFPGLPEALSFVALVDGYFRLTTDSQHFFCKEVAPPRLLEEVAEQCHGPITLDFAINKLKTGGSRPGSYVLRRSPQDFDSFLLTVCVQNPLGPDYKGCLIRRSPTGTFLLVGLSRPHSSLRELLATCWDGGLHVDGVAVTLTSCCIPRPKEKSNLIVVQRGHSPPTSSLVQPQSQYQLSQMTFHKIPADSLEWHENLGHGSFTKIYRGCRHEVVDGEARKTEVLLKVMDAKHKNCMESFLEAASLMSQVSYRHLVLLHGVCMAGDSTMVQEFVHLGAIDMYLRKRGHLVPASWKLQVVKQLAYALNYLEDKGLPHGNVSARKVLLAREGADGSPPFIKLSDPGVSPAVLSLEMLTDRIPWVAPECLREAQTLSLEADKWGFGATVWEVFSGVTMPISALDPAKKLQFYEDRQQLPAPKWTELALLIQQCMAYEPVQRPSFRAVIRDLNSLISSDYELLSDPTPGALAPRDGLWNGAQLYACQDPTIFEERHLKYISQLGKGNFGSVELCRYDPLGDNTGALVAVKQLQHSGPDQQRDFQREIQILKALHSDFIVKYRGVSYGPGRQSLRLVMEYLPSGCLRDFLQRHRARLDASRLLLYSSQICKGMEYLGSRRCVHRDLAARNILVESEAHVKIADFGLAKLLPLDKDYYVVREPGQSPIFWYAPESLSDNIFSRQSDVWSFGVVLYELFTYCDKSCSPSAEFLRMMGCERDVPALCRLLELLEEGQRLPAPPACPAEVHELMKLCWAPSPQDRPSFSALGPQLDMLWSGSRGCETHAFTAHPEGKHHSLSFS
# [7] = target: Ribosomal protein S6 kinase alpha-1 (Homo sapiens, UniProt Q15418); assay: Selectivity interaction (KinomeScan (DiscoverX)) EUB0001079a RPS6KA1; conditions: at 1 µM
# [8] = target: Cyclin-dependent kinase 4 (Homo sapiens, UniProt P11802); assay: Selectivity interaction (Kinase panel (33PanQinase(R) Activity Assay)) EUB0000877a CDK4
# [9] = target: Dual specificity mitogen-activated protein kinase kinase 2 (Homo sapiens) (UniProt P36507); assay: Selectivity interaction (ActivX KiNativ screen (kinase selectivity in THP-1 cell lysates)) EUB0000639a MAP2K2; format: subcellular; conditions: lysate
# [10] = target: Ribosomal protein S6 kinase alpha-3 (Homo sapiens, UniProt P51812); assay: Selectivity interaction (ActivX KiNativ screen (kinase selectivity in THP-1 cell lysates)) EUB0000639a RPS6KA3; format: subcellular; conditions: lysate, at 1 µM
# [11] = target: SRSF protein kinase 3 (Homo sapiens) (UniProt Q9UPE1); assay: Selectivity interaction (KinomeScan (DiscoverX)) EUB0000595a SRPK3; conditions: at 10 µM
# [12] = target: Vascular endothelial growth factor receptor 3 (Homo sapiens, UniProt P35916); assay: Selectivity interaction (KinomeScan (DiscoverX)) EUB0000092b FLT4; conditions: at 10 µM
# [13] = target: Ribosomal protein S6 kinase alpha-2 (Homo sapiens) (UniProt Q15349); assay: Selectivity interaction (KinomeScan (DiscoverX)) EUB0000618a RPS6KA2; conditions: at 10 µM
# [14] = target: Serine/threonine-protein kinase tousled-like 2 (Homo sapiens) (UniProt Q86UE8); assay: Selectivity interaction (KinomeScan (DiscoverX)) EUB0000618a TLK2; conditions: at 10 µM
# [15] = target: Casein kinase I isoform gamma-2 (Homo sapiens) (UniProt P78368); conditions: at 10 µM
# [16] = target: Bone morphogenetic protein receptor type-1A (Homo sapiens, UniProt P36894); assay: Selectivity interaction (KinomeScan (DiscoverX)) EUB0000607a BMPR1A; conditions: at 10 µM
# Chain of Bone morphogenetic protein receptor type-1A (P36894 whole entry): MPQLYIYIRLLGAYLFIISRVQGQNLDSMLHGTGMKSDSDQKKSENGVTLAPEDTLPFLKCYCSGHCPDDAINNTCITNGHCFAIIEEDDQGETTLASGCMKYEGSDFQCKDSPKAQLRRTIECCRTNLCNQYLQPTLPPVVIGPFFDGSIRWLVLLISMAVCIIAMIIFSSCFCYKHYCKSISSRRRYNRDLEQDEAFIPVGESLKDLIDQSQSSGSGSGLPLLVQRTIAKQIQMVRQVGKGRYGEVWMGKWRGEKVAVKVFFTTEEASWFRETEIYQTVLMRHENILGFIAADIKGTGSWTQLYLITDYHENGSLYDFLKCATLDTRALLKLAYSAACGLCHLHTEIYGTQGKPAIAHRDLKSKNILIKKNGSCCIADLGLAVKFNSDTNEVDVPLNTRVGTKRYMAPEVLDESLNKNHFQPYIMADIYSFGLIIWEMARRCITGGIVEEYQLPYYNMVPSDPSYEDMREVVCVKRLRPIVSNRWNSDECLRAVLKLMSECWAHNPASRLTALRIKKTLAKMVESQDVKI
# Chain of Dual specificity mitogen-activated protein kinase kinase 2 (Homo sapiens) (P36507 whole entry): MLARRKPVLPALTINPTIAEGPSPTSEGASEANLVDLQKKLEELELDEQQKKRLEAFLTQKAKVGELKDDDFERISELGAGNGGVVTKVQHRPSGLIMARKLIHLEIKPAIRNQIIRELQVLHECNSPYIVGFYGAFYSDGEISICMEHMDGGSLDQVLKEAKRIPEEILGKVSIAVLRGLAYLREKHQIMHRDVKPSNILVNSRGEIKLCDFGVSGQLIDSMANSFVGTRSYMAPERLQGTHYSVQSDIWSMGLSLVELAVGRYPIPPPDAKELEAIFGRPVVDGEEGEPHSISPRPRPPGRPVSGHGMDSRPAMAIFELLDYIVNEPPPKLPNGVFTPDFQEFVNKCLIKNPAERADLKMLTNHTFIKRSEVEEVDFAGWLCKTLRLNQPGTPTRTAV
# Chain of Casein kinase I isoform gamma-2 (Homo sapiens) (P78368 whole entry, looked up, canonical isoform): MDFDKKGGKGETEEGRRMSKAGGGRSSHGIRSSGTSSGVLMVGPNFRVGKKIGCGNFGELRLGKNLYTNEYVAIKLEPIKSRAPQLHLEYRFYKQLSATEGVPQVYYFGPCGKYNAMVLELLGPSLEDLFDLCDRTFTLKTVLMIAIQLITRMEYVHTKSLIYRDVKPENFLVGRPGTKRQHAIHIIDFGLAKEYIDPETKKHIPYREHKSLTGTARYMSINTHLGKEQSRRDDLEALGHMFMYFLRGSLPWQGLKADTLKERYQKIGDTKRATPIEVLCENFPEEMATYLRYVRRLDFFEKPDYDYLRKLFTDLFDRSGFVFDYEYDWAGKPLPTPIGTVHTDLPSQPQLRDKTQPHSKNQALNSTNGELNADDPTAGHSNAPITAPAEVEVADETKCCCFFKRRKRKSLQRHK
# Chain of Vascular endothelial growth factor receptor 3 (P35916 whole entry): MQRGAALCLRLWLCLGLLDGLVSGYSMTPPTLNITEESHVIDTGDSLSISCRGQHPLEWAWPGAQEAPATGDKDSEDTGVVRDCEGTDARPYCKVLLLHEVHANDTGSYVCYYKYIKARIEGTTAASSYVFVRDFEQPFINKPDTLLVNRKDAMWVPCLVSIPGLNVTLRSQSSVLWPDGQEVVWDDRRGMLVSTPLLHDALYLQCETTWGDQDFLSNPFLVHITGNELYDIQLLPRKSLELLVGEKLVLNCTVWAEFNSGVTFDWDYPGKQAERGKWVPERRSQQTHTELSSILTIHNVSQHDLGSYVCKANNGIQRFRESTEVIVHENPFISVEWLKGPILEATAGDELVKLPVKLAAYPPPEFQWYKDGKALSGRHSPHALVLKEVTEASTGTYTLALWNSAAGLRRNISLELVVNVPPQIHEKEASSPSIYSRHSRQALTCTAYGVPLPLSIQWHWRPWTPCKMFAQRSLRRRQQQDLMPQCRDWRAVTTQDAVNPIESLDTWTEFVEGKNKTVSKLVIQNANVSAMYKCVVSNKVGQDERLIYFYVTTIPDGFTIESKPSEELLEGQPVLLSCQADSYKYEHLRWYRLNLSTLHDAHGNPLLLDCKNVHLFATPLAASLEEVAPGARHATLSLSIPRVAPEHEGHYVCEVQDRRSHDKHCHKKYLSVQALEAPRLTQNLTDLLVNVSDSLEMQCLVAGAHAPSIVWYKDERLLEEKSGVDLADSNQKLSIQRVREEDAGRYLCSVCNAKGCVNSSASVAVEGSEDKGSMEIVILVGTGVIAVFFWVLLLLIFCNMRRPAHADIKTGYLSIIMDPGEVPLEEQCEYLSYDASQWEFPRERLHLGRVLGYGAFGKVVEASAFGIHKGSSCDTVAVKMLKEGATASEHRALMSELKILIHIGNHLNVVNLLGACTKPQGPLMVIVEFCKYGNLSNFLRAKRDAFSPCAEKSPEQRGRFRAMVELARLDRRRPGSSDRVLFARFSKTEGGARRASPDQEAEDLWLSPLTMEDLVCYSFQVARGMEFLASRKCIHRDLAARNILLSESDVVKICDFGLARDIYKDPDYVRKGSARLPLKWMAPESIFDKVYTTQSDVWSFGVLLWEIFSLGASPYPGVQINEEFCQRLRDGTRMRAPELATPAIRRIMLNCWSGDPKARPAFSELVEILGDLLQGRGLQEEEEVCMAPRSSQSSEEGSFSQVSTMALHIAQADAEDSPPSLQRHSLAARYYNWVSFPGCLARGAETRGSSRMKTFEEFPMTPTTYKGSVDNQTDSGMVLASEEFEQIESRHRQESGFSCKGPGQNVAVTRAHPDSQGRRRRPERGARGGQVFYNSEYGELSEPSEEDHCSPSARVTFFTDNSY
# Chain of Cannabinoid receptor 1 (P21554 whole entry): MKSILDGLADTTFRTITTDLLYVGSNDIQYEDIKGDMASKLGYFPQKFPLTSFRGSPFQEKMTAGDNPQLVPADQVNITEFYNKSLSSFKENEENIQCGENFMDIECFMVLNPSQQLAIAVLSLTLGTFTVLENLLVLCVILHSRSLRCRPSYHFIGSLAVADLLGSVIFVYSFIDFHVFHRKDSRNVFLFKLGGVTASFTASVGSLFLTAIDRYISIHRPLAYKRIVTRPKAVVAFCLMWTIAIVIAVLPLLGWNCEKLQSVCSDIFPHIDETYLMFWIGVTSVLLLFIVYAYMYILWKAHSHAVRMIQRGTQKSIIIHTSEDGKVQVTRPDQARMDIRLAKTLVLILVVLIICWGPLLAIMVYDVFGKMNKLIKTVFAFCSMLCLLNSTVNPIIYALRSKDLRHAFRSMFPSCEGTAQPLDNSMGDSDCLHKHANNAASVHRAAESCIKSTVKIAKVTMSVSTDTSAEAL
# Chain of Ribosomal protein S6 kinase alpha-1 (Q15418 whole entry): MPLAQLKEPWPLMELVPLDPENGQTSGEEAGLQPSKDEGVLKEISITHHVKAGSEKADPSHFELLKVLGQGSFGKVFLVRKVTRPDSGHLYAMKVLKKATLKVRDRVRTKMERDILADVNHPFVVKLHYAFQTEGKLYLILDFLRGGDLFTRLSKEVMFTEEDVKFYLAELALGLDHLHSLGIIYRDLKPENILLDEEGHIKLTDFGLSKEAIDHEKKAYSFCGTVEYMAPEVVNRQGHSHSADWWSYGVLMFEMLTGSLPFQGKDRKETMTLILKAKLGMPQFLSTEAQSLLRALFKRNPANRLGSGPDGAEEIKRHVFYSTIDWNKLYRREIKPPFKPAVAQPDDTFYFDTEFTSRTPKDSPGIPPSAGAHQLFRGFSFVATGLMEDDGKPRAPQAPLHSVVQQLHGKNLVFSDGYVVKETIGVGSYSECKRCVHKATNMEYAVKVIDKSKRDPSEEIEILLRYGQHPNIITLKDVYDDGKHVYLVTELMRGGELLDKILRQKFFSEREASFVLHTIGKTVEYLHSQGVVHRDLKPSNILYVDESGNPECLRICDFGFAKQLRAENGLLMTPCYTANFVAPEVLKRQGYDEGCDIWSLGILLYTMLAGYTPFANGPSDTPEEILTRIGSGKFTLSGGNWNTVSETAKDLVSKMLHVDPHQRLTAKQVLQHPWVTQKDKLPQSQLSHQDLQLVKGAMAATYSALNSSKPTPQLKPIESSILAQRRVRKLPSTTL
# Chain of Dual specificity protein kinase CLK1 (P49759 whole entry, looked up): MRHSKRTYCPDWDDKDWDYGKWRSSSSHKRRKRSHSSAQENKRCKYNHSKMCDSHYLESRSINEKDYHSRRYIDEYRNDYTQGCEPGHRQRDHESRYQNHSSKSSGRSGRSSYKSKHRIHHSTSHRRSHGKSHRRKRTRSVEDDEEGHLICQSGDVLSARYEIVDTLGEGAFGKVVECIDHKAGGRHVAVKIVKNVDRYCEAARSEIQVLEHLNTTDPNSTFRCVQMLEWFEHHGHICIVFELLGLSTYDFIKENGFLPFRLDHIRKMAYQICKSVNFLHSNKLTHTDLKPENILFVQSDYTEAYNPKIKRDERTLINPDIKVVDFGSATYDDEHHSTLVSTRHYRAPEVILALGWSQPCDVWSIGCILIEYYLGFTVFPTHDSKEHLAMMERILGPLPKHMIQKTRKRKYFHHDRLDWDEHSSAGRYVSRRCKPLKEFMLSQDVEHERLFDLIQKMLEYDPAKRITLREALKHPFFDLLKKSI
# Chain of Tyrosine-protein kinase FRK (Homo sapiens) (P42685 whole entry): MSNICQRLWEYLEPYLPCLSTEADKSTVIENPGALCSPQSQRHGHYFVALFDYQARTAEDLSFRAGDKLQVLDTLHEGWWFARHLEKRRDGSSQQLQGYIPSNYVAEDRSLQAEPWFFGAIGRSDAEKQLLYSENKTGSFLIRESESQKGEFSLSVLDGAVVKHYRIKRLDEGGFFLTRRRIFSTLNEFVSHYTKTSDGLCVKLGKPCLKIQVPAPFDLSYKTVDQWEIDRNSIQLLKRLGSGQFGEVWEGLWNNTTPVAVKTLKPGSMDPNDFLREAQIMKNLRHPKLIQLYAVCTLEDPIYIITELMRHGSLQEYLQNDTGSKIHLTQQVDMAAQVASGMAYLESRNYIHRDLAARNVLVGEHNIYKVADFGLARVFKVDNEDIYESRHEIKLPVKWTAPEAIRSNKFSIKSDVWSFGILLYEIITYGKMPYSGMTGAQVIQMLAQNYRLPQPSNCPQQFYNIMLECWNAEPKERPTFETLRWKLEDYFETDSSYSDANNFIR
smiles,measurement,setting,value
COc1cc(Nc2nc(C)cc(-c3cnn4nc(OC)ccc34)n2)cc(C(F)(F)F)c1,% of control,[1],100%
O=C(NOC[C@H](O)CO)c1ccc(F)c(F)c1Nc1ccc(I)cc1F,% of control,[2],60%
CCc1cc(Nc2nccc(-c3c(-c4ccc(OC)c(C(=O)Nc5c(F)cccc5F)c4)nc4ccccn34)n2)c(OC)cc1N1CCC(N2CCN(S(C)(=O)=O)CC2)CC1,% of inhibition,[3],52%
COc1cc(N(C)c2ccnc3ccc(C(F)(F)F)cc23)cc(OC)c1OC,% binding,[4],100%
CC(=O)c1cc(-c2ccccc2OCC2CC2)c2ncccn12,% of control,[5],116%
Nc1cnc(N2CCc3cc(S(=O)(=O)Nc4c(F)cc(Cl)cc4F)cc(N4CCCC4=O)c32)nc1 [TP-020n],% of control,[6],100%
same,% of control,[7],93%
CCC(=O)N1CC[C@H](Nc2ncnc3c2CN(c2cnc(OC)c(C(F)(F)F)c2)CC3)C1 [LENIOLISIB],IC50,[8],> 10 µM
CC[C@@H]1[C@H](F)C(=O)N[C@@H]1COc1nccc2cc(C(N)=O)c(OC)cc12 [ZIMLOVISERTIB],% of inhibition,[9]; at 0.01 µM,-25.6%
same,% of inhibition,[9]; at 0.04 µM,-4.8%
same,% of inhibition,[9]; at 0.2 µM,-3.6%
same,% of inhibition,[9]; at 1 µM,3.1%
same,% of inhibition,[9]; at 5 µM,18.5%
same,% of inhibition,[10],0.1%
COCC(=O)NC/C=C/c1ccc2ncnc(Nc3ccc(Oc4ccc(C)nc4)c(C)c3)c2c1 [CP-724714],% of control,[11],100%
CCC(=O)N1CCN(c2ccc(-n3c(=O)ccc4cnc5ccc(-c6cnc7ccccc7c6)cc5c43)cc2C(F)(F)F)CC1,% of control,[12],74%
O[C@H]1CC[C@H](Nc2ncc3nc(Nc4c(F)cc(F)cc4F)n([C@H]4CCOC4)c3n2)CC1,% of control,[13],78%
same,% of control,[14],99%
Cc1cc([C@@H](C)Nc2ccccc2C(=O)O)c2nc(N3CCOCC3)cc(=O)n2c1 [AZD-6482],% of control,[15],88%
CNC(=O)Nc1ccc(-c2nc(N3CC4CCC(C3)O4)c3cnn(C4CCC5(CC4)OCCO5)c3n2)cc1,% of control,[16],100%

# — ChEMBL document CHEMBL5465560, “Selectivity Literature for EUbOPEN Chemogenomic Library” (2024)
